Earlier results as cited in patent US9229014B2, “Methods of assessing the need for and the effectiveness of therapy with antioxidants” (priority 2004, dated 2016).

Key:
heart and liver tissues = details: ADR-induced rats; for serum and tissue levels of LDH, aminotransferases and ALP: comparison with control group
[1] = lipid-soluble antioxidant

In the case of low molecular weight heparin [LMWH], the “cardiac and hepatic lipid peroxidation induced by ADR” value (heart and liver tissues) is given as “decreased”, the “rise in serum CPK (cardiotoxicity)” value (heart and liver tissues; LMWH treatment) is given as “attenuated” and the “serum and tissue levels of LDH, aminotransferases and ALP” value (heart and liver tissues) is given as “prevented the rise”.
For `CC1=C[C@H](O)CC(C)(C)[C@H]1/C=C/C(C)=C/C=C/C(C)=C/C=C/C=C(C)/C=C/C=C(C)/C=C/C1=C(C)C[C@@H](O)CC1(C)C` [Lutein], the “antioxidant activity relative to vitamin E” value [1] is given as 2.3 times higher than vitamin E.
In the case of `CC(C)=CCC/C(C)=C/C=C/C(C)=C/C=C/C(C)=C/C=C/C=C(C)/C=C/C=C(C)/C=C/C=C(\C)CCC=C(C)C` [Lycopene], the “antioxidant activity relative to vitamin E” value [1] is listed as 2.8 times higher than vitamin E.
For `N.N.O=C([O-])C1(C(=O)[O-])CCC1.[Pt+2]` [Carboplatin], the “reduced to oxidized glutathione ratio, antioxidant enzyme activities” value (inferior colliculus; 4 days after treatment) is given as “significantly depressed” and the “nitric oxide and lipid peroxidation, xanthine oxidase, and manganese superoxide dismutase activities” value (inferior colliculus; not in the cerebellum) is given as “significantly increased”.
For `COc1cccc2c1C(=O)c1c(O)c3c(c(O)c1C2=O)C[C@@](O)(C(=O)CO)C[C@@H]3O[C@H]1C[C@H](N)[C@H](O)[C@H](C)O1` [ADR, adriamycin], the “serum and tissue levels of LDH, aminotransferases and ALP” value (heart and liver tissues) is listed as “significantly elevated”.
For `CC1=C(/C=C/C(C)=C/C=C/C(C)=C/C=C/C=C(C)/C=C/C=C(C)/C=C/C2=C(C)C[C@@H](O)CC2(C)C)C(C)(C)CCC1` [Beta-Cryptoxanthin], the “antioxidant activity relative to vitamin E” value [1] is given as 3.1 times higher than vitamin E.
In the case of `CC1=C(/C=C/C(C)=C/C=C/C(C)=C/C=C/C=C(C)/C=C/C=C(C)/C=C/C2=C(C)C[C@@H](O)CC2(C)C)C(C)(C)C[C@H](O)C1` [Zeaxanthin], the “antioxidant activity relative to vitamin E” value [1] is listed as 2.8 times higher than vitamin E.
